Assay results published in US20150224094A1, “ADMINISTRATION OF ACETYLCHOLINESTERASE INHIBITORS TO MITIGATE NEUROTOXIN-INDUCED PARALYSIS AND RESIDUAL NEUROMUSCULAR BLOCKADE” (priority 2012, published 2015).
Where “and” joins values, the source holds several entries; their conditions need not be identical. Identical values can stand only once. Entries after “also recorded” stand apart in the source; their conditions may differ.

How the values were obtained:
[1] = Intra-nasal administration of glycopyrrolate and neostigmine, tolerability in a healthy volunteer
Method: In this experiment, the effect of intra-nasal administration of an mAChR inhibitor (glycopyrrolate) was determined using a healthy volunteer. 5 cc of glycopyrrolate (0.2 mg/mL) in sterile water was instilled in one nostril using an LMA sponge atomizer. […] 5 cc of 0.2 mg/mL glycopyrrolate mixed in DMSO was instilled in the other nostril.

[2] = tested on: mivacurium-induced neuromuscular blockade; assay: Reversal of experimental mivacurium paralysis in a human by intranasal neostigmine aerosol
Method: Intravenous mivacurium is administered to a subject at concentrations of 5-200 mcg/kg/min to induce a safe, stable, low level neuromuscular block for a medical procedure. After completion of the procedure a total of 4 to 30 mg of neostigmine in divided doses—each dose separated by 15 minutes ([…] a 5% or a 6% solution) is administered intra-nasally and the regression of the block is followed quantitatively using acceleromyography or clinical measures such as the improvement in muscle strength as measured by thumb adduction, handgrip strength, teeth clenching, head raising and/or swallowing.
Neuromuscular block was quantified by using the train-of-four (TOF) ratio at the left adductor pollicis (AP) muscle measured by acceleromyography and as described previously. When the subject had significant oropharyngeal weakness and met electrophysiological criteria for Level 3 block a single dose of […] IV glycopyrrolate was administered to prevent bradycardia. Five minutes later 6% neostigmine dissolved in sterile water was administered using a primed atomizer (LMA MAD Nasal Device, LMA Corporation North America, San Diego, Calif.). A total dose of 27.6 mg, 0.37 mg/kg with half the volume insufflated in each nostril was given and the subject was left undisturbed for a total period of 10 min (Shaded area, FIG. 2) except for acceleromyographic recording. After the final set of measurements, the mivacurium infusion was terminated and neuromuscular function was allowed to return spontaneously. Emergency equipment and drugs including IV neostigmine and edrophonium (for reversal of mivacurium block) and glycopyrrolate and atropine (for early treatment of neostigmine toxicity) were at the bedside at all times.
Clinical measures of muscle function emphasized those that would be seen in the setting of neurotoxic envenomation that could be readily measured in out-of-hospital settings. The clinical assessments of muscle function were as follows: visual acuity, ease of swallowing, ability to protrude the tongue, diction, and ability to raise the head completely off the bed for more than 5 sec (neck flexion) with a postal scale (WeighMax, Industrial City, Calif., USA) placed under the subjects head to confirm complete elevation and peak respiratory flow measured using a Tru-Zone Peak Flow Meter (Monaghan, Plattsburg, N.Y.). […] The subject was blinded to all clinical and acceleromyographic data as well as to the mivacurium infusion rate and the levels of neuromuscular blockade.
The mivacurium infusion was maintained with unchanged infusion rate, enabling the investigators to determine the characteristics of neostigmine effect. Analysis of TOF ratios were made using TOFMON software (Schering-Plough Corporation, Kenilworth, N.J.) and considered stable if the values obtained 10 min apart differed less than 5% and accounting for repeated measures. Student's t-test results were calculated and reported as average values, standard deviation (SD), and 95% confidence intervals (95% CI).

[3] = tested on: Naja naja (Indian cobra) venom; assay: Intranasal neostigmine in experimental Naja naja envenomation in mice; format: in vivo
Method: After pilot studies to assess the potency of reconstituted N. naja venom, 20 mice (21-28 g) were pseudo-randomized to receive IP injections of N. naja venom (approximately 2.5×LD50 for mice, Total N=20).
After 10 minutes, 15 animals received 5 microliters of 0.5 mg/mL neostigmine by nasal administration. Animals were observed continuously for 12 hours and assessed for signs of toxicity including respiratory distress, loss of spontaneous locomotor activity with the endpoint being death. Surviving animals were euthanized after 12 hours. Comparison of time to euthanasia across groups was performed and represented in Kaplan-Meier curves
Swiss albino mice were envenomed with cobra toxin (Naja naja) by intraperitoneal injection at doses >2.5×the LD50 and that killed 100% of untreated mice “LD100”. Intranasal neostigmine was given 10 minutes after envenomation to determine if this intervention could delay or treat the envenomation. 10/15 mice recovered completely and were still behaving normally >12 hours after envenoming. 5/15 mice in the treatment group died compared to 5/5 (100%) of the envenomation group. Mice were treated only once, with no attempt to re-treat with intranasal neostigmine.

[4] = tested on: krait bite (Bungarus sp.); assay: Case report: intranasal neostigmine aerosol for residual weakness after suspected krait bite; format: in vivo, human; conditions: single dose 0.5 cc aqueous 5% neostigmine intranasal aerosol
Description: A healthy person was sleeping on a mud platform in their village and was awakened by a snake biting their left forearm. Within minutes, they developed headache and throat discomfort. They were transported by their family from the local clinic to the Emergency Department, conscious, but with progressive weakness. On physical examination, they had complete loss of gag reflex and rapidly worsening shortness of breath. There was no fang mark, ecchymosis or local swelling, and there were no other signs of coagulopathy such as bleeding gums or hematuria. They were unable to open their eyes and became unresponsive as emergent intubation was being performed without sedation. Polyvalent anti-snake venom (ASV) was administered concurrently. Based on the pattern of symptoms, lack of coagulopathy, normal renal function and normal bleeding and clotting times as well as lack of physical evidence of snakebite, krait bite (Bungarus sp.) was suspected. Twenty-four hours after ASV therapy and continuous mechanical ventilation, they were awake and alert, but with residual weakness, including profound ptosis, bilateral 6th nerve palsies and inability to lift their neck. […] Intranasal neostigmine was administered every four hours thereafter with IV atropine as prophylaxis against cholinergic toxicity. […]

[5] = tested on: myasthenic patients; conditions: cited from earlier work
[6] = 3 cc of 1 mg/mL neostigmine into one nostril, after 2nd dose of glycopyrrolate
[7] = intranasal neostigmine, constant mivacurium infusion

In the case of `C[N+]1(C)CCC(OC(=O)C(O)(c2ccccc2)C2CCCC2)C1` (stereo not shown) [glycopyrrolate], the “effect on heart rate” value ([1]; 5 cc glycopyrrolate 0.2 mg/mL in sterile water, one nostril, LMA sponge atomizer) is reported as “no effect”, the “effect on heart rate” value ([1]; 5 cc of 0.2 mg/mL glycopyrrolate mixed in DMSO, other nostril) is reported as “no notable effect” and the “effect on nasal membranes” value ([1]; intranasal glycopyrrolate, noted prior to neostigmine) is reported as “mild drying”. For the same compound, the “reversal of neostigmine-associated bradycardia” value ([2]; IV glycopyrrolate) was “easily reversed”.
In the case of `CN(C)C(=O)Oc1cccc([N+](C)(C)C)c1` [neostigmine], the “effect on heart rate” value [1, 6] is reported as “no effect”, the salivation [1, 6] is reported as “no increase” and the “local tolerability of intranasal spray” value ([2]; 6% neostigmine by atomizer) is reported as “no stinging sensation or irritation”. The “Normalized TOF ratios (mean ± SD), adductor pollicis” value ([2]; after intranasal 6% neostigmine 27.6 mg (0.37 mg/kg), constant mivacurium infusion 2.5 mcg/kg/min, pre-neostigmine 0.56) was 0.64±0.03, the “Peak flow of baseline by the termination of the mivacurium infusion” value ([2]; after intranasal neostigmine, 135 min) was 95% and the “peak improvement adductor pollicis TOF ratio” value ([2]; after intranasal neostigmine, constant mivacurium infusion) was 0.70. For the same compound, the “time to feeling of facial and lingual muscles rearranging and tightening” value ([2]; after receiving intranasal neostigmine) was ≤ 5 min, the “time to full recovery of neck flexion” value ([2]; first test of neck flexion following neostigmine administration) was 5 min and the “clinically important muscular deficits / neuromuscular blockade” value [2, 7] was “quickly relieved all clinically important muscular deficits; also recorded: antagonized the neuromuscular blockade”. For the same compound, the “time to full recovery of ability to swallow after neostigmine administration” value [2, 7] was ≤ 10 min, the “bradycardia and concurrent symptoms” value ([2]; just prior to stopping the mivacurium infusion and after) was “asymptomatic bradycardia” and the “Peak Flow, average after neostigmine, of baseline” value ([2]; response to intranasal neostigmine, 72% under stable blockade) was 91%. For the same compound, the “Visual Acuity” value ([2]; response to intranasal neostigmine, >20/200 under stable blockade) was “Steady improvement and 20/20”, the “Ease of Swallowing” value ([2]; response to intranasal neostigmine, Difficult under stable blockade) was “Easy” and the “Tongue Protrusion” value ([2]; response to intranasal neostigmine, Moderately Difficult under stable blockade) was “Easy”. The Diction ([2]; response to intranasal neostigmine, Poor under stable blockade) was “Improved”, the “Jaw Ptosis” value ([2]; response to intranasal neostigmine, Present under stable blockade) was “None” and the “Neck Flexion (Head Raise >5 s)” value ([2]; response to intranasal neostigmine, Unable under stable blockade) was “Easy”. For the same compound, the “signs or symptoms of muscarinic-mediated toxicity” value ([2]; while the mivacurium infusion was running) was “no signs or symptoms”, the “mice whose lives were prolonged or saved” value ([3]; 5 uL of 0.5 mg/mL IN neostigmine, 2.5× the 100% lethal dose (LD100) of Naja naja venom) was 5/5 and the “effect on survival time” value ([3]; 5 uL of 0.5 mg/mL IN neostigmine, of Naja naja) was “trended toward prolonging the lives”. For the same compound, the “time to death or euthanasia” value ([3]; IN neostigmine N=15, controls 193 minutes) was 553 min, the “condition of surviving animals” value ([3]; IN neostigmine after N. naja venom) was “completely normal by 6 hours” and the “mice that died in the treatment group” value ([3]; IN neostigmine, 5/5 died in envenomation group) was 5/15. The “animals surviving / recovered of treated” value ([3]; single dose 5 uL of 0.5 mg/mL IN neostigmine 10 min after IP N. naja venom (approx. 2.5×LD50, 100% lethal in controls), 12 h observation) was 10 of 15 and 10/15, the survival ([3]; single dose IN neostigmine 10 min after IP N. naja venom, N=15) was 67% and the 6th nerve palsies [4] was “almost complete recovery”. The “time to complete resolution of ptosis” value ([4]; 24 h after ASV) was ≤ 30 min, the “clinical effect in myasthenic patients” value ([5]; 6% neostigmine methylsulfate intranasal, doses spaced by 15 minutes, alternating nostrils) was “salutary effects usually after the first dose” and the “puffs tolerated without ill effect” value ([5]; intranasal neostigmine at 15 minute intervals) was “up to 5 puffs”.
